“And” between values parts separate entries of the source, which are not always exact repeats. Identical values can stand only once. ± gives the expanded uncertainty stated by the source.
Conditions: Pendant drop shape

surface tension liquid-gas (283.2 K): 74.8 ± 2.3 mN/m and 74.83 ± 2.1 mN/m
surface tension liquid-gas (288.2 K): 73.65 ± 2.3 mN/m and 73.67 ± 2.1 mN/m
surface tension liquid-gas (293.2 K): 73.07 ± 2.1 mN/m and 73.03 ± 2.1 mN/m
surface tension liquid-gas (298.2 K): 72.21 ± 2.2 mN/m and 72.13 ± 2.1 mN/m
Structure (SMILES): O [water]

— the NIST ThermoML archive (doi:10.1016/j.jct.2017.01.007)
